Series [1] can be described thus: Oral feasibility PK in dogs (paclitaxel capsules, plasma HPLC). The series is classed as in vivo. The note with it: for Cmax / Tmax: dog, plasma; for Tmax: read-out: tmax (time of maximum concentration observed). The procedure: The formulation was as follows: […]
and was hand filled into single 0 hard gelatin capsules to a dose of approximately 34 mg/capsule.
Capsules were inserted into the esophagus and followed with a brief squirt of water and the animals held until swallowing was observed.

A short description of series [2]: Solubilization of paclitaxel in the carrier and appearance of the undiluted formulation. The class given is physicochemical.
Experimental: 4.040 g of Vitamin E-TPGS (Eastman Chemical Co., Kingsport, Tenn.) was chipped in and weighed into a 20 ml scintillation vial. 0.514 g of dimethylisosorbide (“DMI”; ARLASOLVE® DMI, ICI Surfactants; Wilmington, Del.) was added to the vial followed by heating to melt the Vitamin E-TPGS/DMI mixture. […] The solution began to clarify and dissolution progressed.
Each formulation was prepared in a 20 ml scintillation vial. The vial was initially tared. CREMOPHOR® EL/citric acid blend (10 g CREMOPHOR® EL, 0.020 g citric acid) was weighed into each of eight (8) tared vials. The weight was recorded. Each vial was subsequently tared and the appropriate weight of dimethylisosorbide (DMI) was added. An additional five (5) vials were also prepared without containing the CREMOPHOR® EL/citric acid blend. […] All vials were individually tared and the appropriate weight of Vitamin E-TPGS was added. At this point, all vials were placed in a 40° C. incubator to liquefy the Vitamin E-TPGS within each sample. After the solutions had liquefied, two samples were removed at a time and placed on a stir/hotplate. One-half inch egg shaped stir bars were added to each scintillation vial.
Large clumps were broken apart easily with a stainless steel spatula. […] This same procedure was repeated for each of the samples.
1.016 g of ethyl alcohol was transferred to a 20 ml scintillation vial containing a stir bar. […]
Series [3] has as its system human X-1 mammary tumor xenograft. To be noted: cited from earlier work.
Series [4] concerns IP implanted D16 melanoma. The note with it: cited from earlier work.
[5] abbreviates: male beagle FJF-8, oral, 3 capsules Vitamin E TPGS/DMI formulation, 7.66 mg/kg.
[6] abbreviates: male beagle IOF-8, oral, 3 capsules Vitamin E TPGS/DMI formulation, 6.88 mg/kg.

Like-named read-outs stand apart in the source and are kept apart here.

With `CC(=O)O[C@H]1C(=O)[C@@]2(C)[C@H]([C@H](OC(=O)c3ccccc3)[C@]3(O)C[C@H](OC(=O)[C@H](O)[C@@H](NC(=O)c4ccccc4)c4ccccc4)C(C)=C1C3(C)C)[C@]1(OC(C)=O)CO[C@@H]1C[C@@H]2O` [paclitaxel], the maximum concentration (Cmax) in series [1] (setting [5]) worked out at 108 ng/mL; in series [1] (setting [6]) it was 92 ng/mL; in series [1] (male, beagle, po, 3.23 mg/kg), 17 ng/mL; in series [1] (male, beagle, po, 3.27 mg/kg) it was 97 ng/mL; in series [1] (male, beagle, po, 11.14 mg/kg), 63 ng/mL. Besides, the Tmax in series [1] (setting [5]) turned out to be 1 h; in series [1] (setting [6]), 0.5 h; in series [1] (male, beagle, po, 3.23 mg/kg), 1 h; in series [1] (male, beagle, po, 3.27 mg/kg) it was 1 h; in series [1] (male, beagle, po, 11.14 mg/kg), 1 h. In addition, the “tlast (time of last nonzero concentration observed)” value stood at 8 h in series [1] (setting [5]); 6 h in series [1] (setting [6]); 8 h in series [1] (male beagle OEF-8, oral, 1 capsule Vitamin E TPGS/DMI formulation, 3.27 mg/kg); 8 h in series [1] (male beagle OLF-8, oral, 3 capsules Vitamin E TPGS/DMI formulation, 11.14 mg/kg); 12 h in series [1] (male beagle PXF-8, oral, 1 capsule Vitamin E TPGS/DMI formulation, 3.23 mg/kg). For the same molecule, the “detectable plasma levels of intact drug following dosing” value in series [1] (six male beagles, oral capsules, 3 to 11 mg/kg, plasma to 48 hours postdose) is “Five of the six animals had detectable levels of intact drug”. Besides, the “dissolution of paclitaxel in Methoxy PEG 550 alone” value in series [2] (0.050 g in 0.450 g (Table 3)) was “eventually dissolved”. For the same molecule, in series [2] (0.050 g in 0.450 g and 0.100 g in 0.900 g (Table 3)), the “dissolution of paclitaxel in Methoxy PEG 350 alone” value is listed as “quickly dissolved”. The cytotoxic activity result in series [3] and in series [4] was “good cytotoxic activity” each time.

By Cmax is commonly meant the highest concentration seen after dosing.

These data come from patent publication US20010029264A1, “Novel methods and compositions for delivery of taxanes” (priority 1998, published 2001).
